The record followed here is ChEMBL document CHEMBL4673364, “Synthesis and cytotoxic activity of new 7-acetoxy-12-amino-14-deoxy andrographolide analogues” (Bioorg Med Chem Lett, 2021).

What is called IC50 is the concentration that inhibits the measured activity by half.

What all share (type): functional, cell-based
Assay [1] is described as follows: Cytotoxicity against rat ASK cells assessed as reduction in cell viability by SRB assay. A general note: Sulforhodamine B stains cellular protein and so reports cell mass.
The nature of assay [2]: Cytotoxicity against human P388 cells assessed as reduction in cell viability by SRB assay.
The subject of assay [3] is HT-29. The assay is described as follows: Cytotoxicity against human HT-29 cells assessed as reduction in cell viability by SRB assay.
The subject of assay [4] is KB. The assay is described as follows: Cytotoxicity against human KB cells assessed as reduction in cell viability by SRB assay.
The nature of assay [5]: Cytotoxicity against human K213 cells assessed as reduction in cell viability by SRB assay.
Assay [6] can be described thus: Cytotoxicity against human K055 cells assessed as reduction in cell viability by SRB assay.
The test system of assay [7] is MCF7. In words: Cytotoxicity against human MCF7 cells assessed as reduction in cell viability by SRB assay.
Assay [8] concerns A549. In words: Cytotoxicity against human A549 cells assessed as reduction in cell viability by SRB assay.

Consider `C=C1[C@@H](OC(C)=O)C[C@@H]2[C@](C)(COC=O)[C@H](OC(C)=O)CC[C@@]2(C)[C@@H]1C[C@@H](Nc1ccccc1C(=O)O)C1=CCOC1=O`, for which the IC50 in assay [1] was over 50 µM; in assay [2] it was 9.11 µM; in assay [3], 28.7 µM; in assay [4] it was 42.5 µM; in assay [5], 42.6 µM; in assay [6], 40.4 µM. The results for the IC50 in assay [7] and in assay [8] were 30.8 µM and 45.9 µM, respectively.

As to `C=C1[C@@H](OC(C)=O)C[C@@H]2[C@](C)(COC=O)[C@H](OC(C)=O)CC[C@@]2(C)[C@@H]1C[C@@H](Nc1ccc(F)cc1)C1=CCOC1=O`, the IC50 in assay [1] was 38.6 µM; in assay [2] it was 6.31 µM; in assay [3] it was 20.5 µM; in assay [4] it was 22.9 µM; in assay [5] it was 30.2 µM; in assay [6] it was 25.8 µM. Further, the IC50 in assay [7] was 12.4 µM; in assay [8] it was 21.2 µM.

For the compound `C=C1[C@@H](OC(C)=O)C[C@@H]2[C@](C)(COC=O)[C@H](OC(C)=O)CC[C@@]2(C)[C@@H]1C[C@@H](Nc1cccc2ccccc12)C1=CCOC1=O`, the IC50 was over 50 µM in assay [1]; 6.49 µM in assay [2]; 8.67 µM in assay [3]; 32.3 µM in assay [4]; 31.3 µM in assay [5]; 28.8 µM in assay [6]. Moreover, the figures for the IC50 in assay [7] and in assay [8] were 9.75 µM and 35.6 µM, respectively.

Regarding `C=C1[C@@H](OC(C)=O)C[C@@H]2[C@](C)(COC=O)[C@H](OC(C)=O)CC[C@@]2(C)[C@@H]1C[C@@H](Nc1ccc(O)cc1)C1=CCOC1=O`, the IC50 in assay [1] stood at 24.2 µM; in assay [2] it was 4.4 µM; in assay [3] it was 13.4 µM; in assay [4], 28.9 µM; in assay [5], 27.1 µM; in assay [6] it was 28.6 µM. Besides, the IC50 in assay [7] came to 18.1 µM; in assay [8] it was 29.1 µM.

As for `C=C1[C@@H](OC(C)=O)C[C@@H]2[C@](C)(COC=O)[C@H](OC(C)=O)CC[C@@]2(C)[C@@H]1C[C@@H](Nc1ccc(Br)cc1)C1=CCOC1=O`, the IC50 is 49.9 µM in assay [1]; 4.95 µM in assay [2]; 13.2 µM in assay [3]; 24 µM in assay [4]; 25.4 µM in assay [5]; 24.4 µM in assay [6]. Besides, the figures for the IC50 in assay [7] and in assay [8] were 11.4 µM and 15.8 µM, respectively.

Regarding `C=C1[C@@H](OC(C)=O)C[C@@H]2[C@](C)(COC=O)[C@H](OC(C)=O)CC[C@@]2(C)[C@@H]1C/C=C1/C(=O)OC[C@H]1OC(C)=O`, the IC50 in assay [1] was determined as 19.2 µM; in assay [2] it was 4.55 µM; in assay [3], 8.29 µM; in assay [4] it was 21.6 µM; in assay [5], 20.8 µM; in assay [6] it was 15.3 µM. Also, the IC50 in assay [7] was found to be 12.9 µM; in assay [8], 19 µM.

As to `C=C1[C@@H](OC(C)=O)C[C@@H]2[C@](C)(COC=O)[C@H](OC(C)=O)CC[C@@]2(C)[C@@H]1C[C@H](C1=CCOC1=O)N1CCOCC1`, the IC50 in assay [1] was 34.4 µM; in assay [2] it was 29.2 µM; in assay [3], 35.1 µM; in assay [4], over 50 µM; in assay [5] it was 31.7 µM; in assay [6] it was 33.7 µM. The IC50 was 43.6 µM in assay [7] and over 50 µM in assay [8].

`C=C1[C@@H](OC(C)=O)C[C@@H]2[C@](C)(CO[Si](C)(C)C(C)(C)C)[C@H](OC(C)=O)CC[C@@]2(C)[C@@H]1C[C@@H](Nc1cccc2ccccc12)C1=CCOC1=O`: the IC50 in assay [1] amounted to 6.33 µM; in assay [2] it was 5.74 µM; in assay [3] it was 15 µM; in assay [4], 8.93 µM; in assay [5], 15.3 µM; in assay [6], 6.72 µM. For the same compound, the IC50 in assay [7] worked out at 5.77 µM; in assay [8] it was 4.97 µM.

Regarding `C=C1[C@@H](OC(C)=O)C[C@@H]2[C@](C)(COC=O)[C@H](OC(C)=O)CC[C@@]2(C)[C@@H]1C[C@@H](Nc1ccc(C(=O)O)cc1)C1=CCOC1=O`, the concentration for half-maximal inhibition (IC50) in assay [1] is over 50 µM; in assay [2] it was 22.2 µM; in assay [3], 37.2 µM; in assay [4], over 50 µM; in assay [5], over 50 µM; in assay [6] it was 48.3 µM. Also, the values for the IC50 in assay [7] and in assay [8] were 41.6 µM and over 50 µM, respectively.

With `C=C1[C@@H](OC(C)=O)C[C@@H]2[C@](C)(COC=O)[C@H](OC(C)=O)CC[C@@]2(C)[C@@H]1C[C@@H](Nc1cccc(F)c1)C1=CCOC1=O`, the IC50 in assay [1] is 35.8 µM; in assay [2], 5.53 µM; in assay [3], 9.41 µM; in assay [4], 28.6 µM; in assay [5] it was 27.2 µM; in assay [6] it was 29.2 µM. Moreover, the figures for the IC50 in assay [7] and in assay [8] were 14.1 µM and 23.2 µM, respectively.

Turning to `C=C1[C@@H](OC(C)=O)C[C@@H]2[C@](C)(CO[Si](C)(C)C(C)(C)C)[C@H](OC(C)=O)CC[C@@]2(C)[C@@H]1C[C@H](C1=CCOC1=O)N1CCOCC1`, the IC50 in assay [1] is 26.3 µM; in assay [2], 20.4 µM; in assay [3], 37.6 µM; in assay [4], 35.7 µM; in assay [6], 28.3 µM; in assay [7], 31.6 µM. Moreover, the IC50 in assay [8] was 24.8 µM.

In the case of `C=C1[C@@H](OC(C)=O)C[C@@H]2[C@](C)(COC=O)[C@H](OC(C)=O)CC[C@@]2(C)[C@@H]1C[C@@H](Nc1ccc(OC)cc1)C1=CCOC1=O`, the IC50 is over 50 µM in assay [1]; 7.9 µM in assay [2]; 25.4 µM in assay [3]; 32.7 µM in assay [4]; 40.9 µM in assay [5]; 33.2 µM in assay [6]. Besides, the IC50 came out at 24.2 µM in assay [7] and 28.9 µM in assay [8].

In the case of `C=C1[C@@H](OC(C)=O)C[C@@H]2[C@](C)(COC=O)[C@H](OC(C)=O)CC[C@@]2(C)[C@@H]1C[C@@H](Nc1ccccc1F)C1=CCOC1=O`, the IC50 in assay [1] was determined as 31.6 µM; in assay [2], 5.97 µM; in assay [3], 9.76 µM; in assay [4] it was 29 µM; in assay [5], 31 µM; in assay [6], 30.3 µM. For the same compound, the IC50 worked out at 16.4 µM in assay [7] and 23.6 µM in assay [8].

On to `C=C1[C@@H](OC(C)=O)C[C@@H]2[C@](C)(COC=O)[C@H](OC(C)=O)CC[C@@]2(C)[C@@H]1C[C@@H](Nc1ccccc1)C1=CCOC1=O`, for which the IC50 was determined as 41 µM in assay [1]; 7.84 µM in assay [2]; 28.8 µM in assay [3]; 32.1 µM in assay [4]; 39.8 µM in assay [5]; 33.2 µM in assay [6]. Also, the values for the IC50 in assay [7] and in assay [8] were 26.2 µM and 25.8 µM, respectively.

Turning to `C=C1[C@@H](OC(C)=O)C[C@@H]2[C@](C)(COC=O)[C@H](OC(C)=O)CC[C@@]2(C)[C@@H]1C[C@@H](Nc1ccc(OC)c(OC)c1)C1=CCOC1=O`, the IC50 is over 50 µM in assay [1]; 25.8 µM in assay [2]; 42.8 µM in assay [3]; over 50 µM in assay [4]; over 50 µM in assay [5]; 48.2 µM in assay [6]. In addition, the half-maximal inhibitory concentration (IC50) in assay [7] and in assay [8] was over 50 µM in each case.
